Measurements as given in publication PMC3726336, “Product inhibition of cellulases studied with ^14C-labeled cellulose substrates” (Biotechnology for Biofuels, 2013).
Like-named read-outs stand apart in the source and are kept apart here.

Experiments:
TaCel7A = TaCel7A (Thermoascus aurantiacus, UniProt A7WNU2); assay: Inhibition of synergistic hydrolysis of 14C-BC by TaCel7A (supplemented with EG TrCel5A); type: biochemical; details: 14C-BC substrate, read-out: IC50 for cellobiose
Description: To study the cellobiose inhibition of GH7 CBHs, the synergistic hydrolysis of ^14C-BC in the presence of added cellobiose was followed (Figure 3, Additional file 1: Figures S1 and S2). Because the cellobiose inhibition of the EG TrCel5A is much weaker than that of GH7 CBHs, the inhibition of synergistic hydrolysis apparently reflects the inhibition of CBH. The strength of cellobiose inhibition was analyzed using plots of (DCB/DCB=0) versus [cellobiose], where DCB and DCB=0 represent the degree of conversion of ^14C-BC in the presence and absence of cellobiose, respectively (Figure 4, Additional file 1: Figure S3). […]
(§1) where [CB] is the concentration of cellobiose; [^14CBC] is the concentration of ^14C-BC used in the experiment; and C1, C2 and H are empirical constants. Equation 5 differs from Equation 1 by the presence of constant H. H was included to improve the fit and is a constant that accounts for the background radioactivity (the degree of conversion that is independent of CBH). The degree of conversion resulting from the activity of the EG was measured in a separate experiment (Additional file 1: Figure S4) and was subtracted from the degree of conversion resulting from the synergistic hydrolysis. […] Provided with the values of C1, C2 and H, the value of IC50 was calculated as follows: […]

CtCel7A = CtCel7A (Chaetomium thermophilum, UniProt A7WNU1); assay: Inhibition of synergistic hydrolysis of 14C-BC by CtCel7A (supplemented with EG TrCel5A); type: biochemical; details: 14C-BC substrate, read-out: IC50 for cellobiose
Description: To study the cellobiose inhibition of GH7 CBHs, the synergistic hydrolysis of ^14C-BC in the presence of added cellobiose was followed (Figure 3, Additional file 1: Figures S1 and S2). Because the cellobiose inhibition of the EG TrCel5A is much weaker than that of GH7 CBHs, the inhibition of synergistic hydrolysis apparently reflects the inhibition of CBH. The strength of cellobiose inhibition was analyzed using plots of (DCB/DCB=0) versus [cellobiose], where DCB and DCB=0 represent the degree of conversion of ^14C-BC in the presence and absence of cellobiose, respectively (Figure 4, Additional file 1: Figure S3). In the case of experiments without added cellobiose, the reactions were provided with N188BG to prevent the inhibition of the CBH by the cellobiose released during hydrolysis. Experiments with no added cellobiose and without BG were also conducted. […] Therefore, the concentration of the cellobiose released during hydrolysis was added to the concentration of externally supplied cellobiose in generating the plots in Figure 4 and Additional file 1: Figure S3. For the calculation of IC50 values, the data were first fitted to hyperbolae:
as §1, with “hydrolysis. Thus, in the case of complete inhibition, H should have a value of zero.” for “hydrolysis.”
Using the time course data measured in the presence and absence of cellobiose, the IC50 values were first found separately for each time point (Figure 4A). […]

Chain of CtCel7A (A7WNU1 entry or part of it): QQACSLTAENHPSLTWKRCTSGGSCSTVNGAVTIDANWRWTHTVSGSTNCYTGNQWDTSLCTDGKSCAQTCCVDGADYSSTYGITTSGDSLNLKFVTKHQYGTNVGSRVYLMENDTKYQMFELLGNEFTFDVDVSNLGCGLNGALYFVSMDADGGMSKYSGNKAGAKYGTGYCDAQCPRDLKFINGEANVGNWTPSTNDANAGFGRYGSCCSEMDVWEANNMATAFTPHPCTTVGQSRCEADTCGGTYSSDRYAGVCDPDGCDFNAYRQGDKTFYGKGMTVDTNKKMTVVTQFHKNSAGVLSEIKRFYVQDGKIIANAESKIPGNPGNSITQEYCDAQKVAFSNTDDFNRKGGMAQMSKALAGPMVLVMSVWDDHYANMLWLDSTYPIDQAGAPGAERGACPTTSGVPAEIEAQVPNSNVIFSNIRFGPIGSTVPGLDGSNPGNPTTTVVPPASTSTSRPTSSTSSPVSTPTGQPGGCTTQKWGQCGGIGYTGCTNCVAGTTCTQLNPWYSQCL
Chain of TaCel7A (A7WNU2 entry or part of it): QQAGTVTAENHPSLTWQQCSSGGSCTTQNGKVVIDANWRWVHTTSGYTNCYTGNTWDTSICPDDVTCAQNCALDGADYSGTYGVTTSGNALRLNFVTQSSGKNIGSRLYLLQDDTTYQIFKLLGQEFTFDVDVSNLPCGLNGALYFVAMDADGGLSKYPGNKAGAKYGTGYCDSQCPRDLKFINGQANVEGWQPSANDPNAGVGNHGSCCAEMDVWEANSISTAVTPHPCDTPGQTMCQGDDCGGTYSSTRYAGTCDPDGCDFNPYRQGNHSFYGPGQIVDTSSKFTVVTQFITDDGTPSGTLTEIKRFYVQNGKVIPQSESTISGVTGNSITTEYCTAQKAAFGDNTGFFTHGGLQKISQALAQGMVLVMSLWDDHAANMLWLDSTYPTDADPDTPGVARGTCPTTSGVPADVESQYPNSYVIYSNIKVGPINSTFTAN

Question: Which IC50 (TaCel7A; 35°C) does the source give for O=C[C@H](O)[C@@H](O)[C@H](O[C@@H]1O[C@H](CO)[C@@H](O)[C@H](O)[C@H]1O)[C@H](O)CO [cellobiose, Cellobiose] here?
Answer: The IC50 was 580 ± 350 µM.

Question: And the IC50 (TaCel7A; 50°C)?
Answer: Its IC50 is 930 ± 100 µM.

Question: What about the IC50 (CtCel7A; 25°C) of the same compound?
Answer: The IC50 was 410 ± 60 µM.

Question: And the IC50 (CtCel7A; 35°C)?
Answer: Its IC50 is 1080 ± 220 µM.

Question: What about the IC50 (CtCel7A; 50°C, IC50 increased with hydrolysis time) of the same compound?
Answer: Its IC50 is 2480 ± 910 µM.
